Assay results: US20150258050A1, “METHOD FOR REDUCING TRIGLYCERIDES” (DEAKIN UNIVERSITY, priority 2012, published 2015)
“Also recorded” adds a separate entry of the source.

Columns and labels:
[1] = Chylomicron TAG polyunsaturated fatty acids (gas chromatography of FAME); type: in vivo, human; conditions: for EPA (20:5n-3) proportion in chylomicron TAGs: one to five hours postprandial, compared to the other breakfasts
Procedure: (§1) This was a postprandial study where fasting blood was taken, followed by the consumption of a breakfast containing placebo (olive oil) or active oils (EPA or DPA) and then hourly post prandial blood samples were taken up to 5-hours.
(§2) The study breakfast consisted of 180 grams of instant mashed potato (Continental Deb™, Unilever, Australasia) mixed with 70 ml boiled water and 20 grams of oil. In each of the three meals 18 grams of lipids consisted of olive oil (La Espanola Pure Olive Oil, Seville, Spain). The DPA breakfast included 2 g of DPA (Equateq Ltd, Breasclete, Callanish, Scotland), the EPA breakfast 2 g of EPA (Equateq Ltd, Breasclete, Callanish, Scotland) and the control (olive oil) meal an additional 2 g of olive oil. EPA and DPA were included in the olive oil as free fatty acids. The subjects could use salt, pepper or chicken flavoured salt with the meal and were provided with water throughout the study period ad libitum. Subjects consumed the study meal within 15 minutes.
(§3) A chylomicron-rich fraction (Svedberg flotation unit (Sf) >400), later abbreviated to “chylomicrons”, was isolated from plasma by ultracentrifugation using a Beckman ultra centrifuge and TLA 100.4 rotor (Beckman instruments, Palo Alto, Calif., USA) as previously described (Ågren et al., 2006). Briefly 1.8 ml of EDTA plasma was overlaid with saline solution (density=1.006 kg/I) in ultracentrifuge tubes and centrifuged at 35,000×g for 30 min at 23° C. The top 1 millilitre was aspirated to remove the chylomicron-rich fraction. All samples were frozen at −80° C. prior analysis.
An internal standard mixture of triheptadecanoin (Sigma-Aldrich, St. Louis, Mo., USA), dinonadecanoylphosphatidylcholine (Sigma-Aldrich, St. Louis, Mo., USA) and cholesterylpentadecanoate (Nu-Chek Prep. Inc., Elysian, Minn., USA) was added to the isolated chylomicrons. Then 1.5 ml methanol, 3 ml chloroform and 0.8 ml 0.88% KCl in water were added and the blend was thoroughly vortexed after each addition. The tubes were centrifuged 2000×g for 3 minutes to separate the layers, and the chloroform rich layer was removed and evaporated to dryness (Folch et al., (1957) J Biol Chem 226:497-509). TAGs and phospholipids were isolated from the extracted lipid mixture with solid phase extraction based on silica columns (Hamilton and Comai, (1988) Lipids 23:1146-1149).
Fatty acid methyl esters (FAME) were prepared with a sodium methoxide method. In short, the lipids were suspended to 1 ml dry diethylether. 25 μl methylacetate and 25 μl sodium methoxide were added and the blend was incubated for 5 minutes while shaken at times. The reaction was stopped with 6 μl acetic acid. The tubes were centrifuged 2000×g for 5 minutes, after which the supernatant was removed and gently evaporated to dryness. The resulting FAME were transferred to 100 μl inserts in hexane (Christie (1982) J Lipid Res 23:1072-1075). The FAME were analysed with gas chromatography (Shimadzu GC-2010 equipped with AOC-20i auto injector, flame ionization detector (Shimadzu corporation, Kyoto, Japan) and wall coated open tubular column DB-23 (60 m×0.25 mm i.d., liquid film 0.25 μm, Agilent technologies, J.W. Scientific, Santa Clara, Calif., USA). Splitless/split injection was used and the split was opened after 1 min. Supelco 37 Component FAME Mix (Supelco, St. Louis, Mo., USA), 68D (Nu-Check-Prep, Elysian, Minn., USA) and GLC-490 (Nu-Check-Prep, Elysian, Minn., USA) were used as external standards.

[2] = Postprandial plasma triacylglycerol concentration after test breakfasts (randomized cross-over study); type: in vivo, human
Source text: (§4) Ten healthy normal weight females between the age of 20 to 30 of took part in a randomized cross over study with three different breakfast meals. […] The baseline values for EPA and DHA proportions in erythrocytes were 1.0±0.1 and 6.7±0.6% (mean±standard error of the mean). Subjects with any form of cardiovascular disease based on self reported medical status and family history were excluded from the study. All subjects provided written informed consent. Ethics approval was obtained from the Deakin University Human Research Ethics Committee (EC2011-023).
as §1, §2
Venous blood was drawn at the fasting state and hourly post prandial for one to five hours. EDTA blood samples were immediately centrifuged for fifteen minutes at 591×g to isolate the plasma.
(§5) TAG concentrations in plasma and the isolated chylomicrons were measured on a Roche Cobas Integra 400 plus autoanalyser (Roche, Lavel, Quebec, Canada) by enzymatic colorimetric method using commercially available kits (TRIGL) as per the manufacturer's instructions (Roche, Lavel, Quebec, Canada).

[3] = Complaints reported after the study breakfasts; type: in vivo, human
Procedure: as §2
After the DPA meal, there were two cases of diarrhea and one case of upset stomach but no diarrhea. One case of diarrhea was reported after the EPA meal, and there were no complaints after the olive oil meal. All complaints occurred 2 to 3 hours after the breakfast.

[4] = Postprandial triacylglycerol concentration in chylomicron-rich fraction after test breakfasts; type: in vivo, human
Source text: as §4, §1, §2, §3, §5

[5] = rats, short term supplementation; cited from earlier work
[6] = Lipidomics of PUFA containing chylomicron TAGs (LC-ESI-MS/MS); type: in vivo, human; conditions: 3 and 5 hour time points
Procedure: Lipidomic analysis of the one, three and five hour chylomicron samples was performed by liquid chromatography, electrospray ionisation-tandem mass spectrometry using an Applied Biosystems 4000 QTRAP mass spectrometer running Analyst 1.5 software. Liquid chromatography was performed on a Zorbax C18, 1.8 μm, 50×2.1 mm column (Agilent technologies, Santa Clara Calif., USA). The lipids of the chylomicrons were extracted with chloroform:methanol (2:1, 20 volumes), mixed, sonicated (30 mins) and allowed to stand for 20 mins. Samples were centrifuged (16 000×g, 10 min) and the supernatant transferred to a 96 well PPE plate and dried until a stream of nitrogen at 40° C. […] Quantification of individual TAG species was performed using scheduled multiple-reaction monitoring (MRM) in the positive ion mode (Murphy et al., (2007) Anal Biochem 366:59-70). Lipid concentrations (pmol/mL) were calculated by relating the peak area of each species to the peak area of the internal standard of triheptadecanoin (Sigma Aldrich, St Louis Mo., USA) for TAGs, cholestyl ester-18:0D6 (CDN isotopes, Quebec, Canada) for cholesteryl esters, phosphatidyl choline-13:0/13:0 (Avanti Polar Lipids, Alabaster Ala., USA) for phosphatidyl cholines and phosphatidyl ethanolamine-17:0/17:0 (Avanti Polar Lipids, Alabaster Ala., USA) for ethanolamines and phosphatidyl inositols (using Multiquant 1.2 software). […]

[7] = Chylomicron phospholipid fatty acids (gas chromatography of FAME); type: in vivo, human; conditions: at 2 h
Procedure: as §1
The study breakfast consisted of 180 grams of instant mashed potato (Continental Deb™, Unilever, Australasia) mixed with 70 ml boiled water and 20 grams of oil. In each of the three meals 18 grams of lipids consisted of olive oil (La Espanola Pure Olive Oil, Seville, Spain). The DPA breakfast included 2 g of DPA (Equateq Ltd, Breasclete, Callanish, Scotland), the EPA breakfast 2 g of EPA (Equateq Ltd, Breasclete, Callanish, Scotland) and the control (olive oil) meal an additional 2 g of olive oil. […]
Fatty acid methyl esters (FAME) were prepared with a sodium methoxide method. […] The FAME were analysed with gas chromatography (Shimadzu GC-2010 equipped with AOC-20i auto injector, flame ionization detector (Shimadzu corporation, Kyoto, Japan) and wall coated open tubular column DB-23 (60 m×0.25 mm i.d., liquid film 0.25 μm, Agilent technologies, J.W. Scientific, Santa Clara, Calif., USA). Splitless/split injection was used and the split was opened after 1 min. Supelco 37 Component FAME Mix (Supelco, St. Louis, Mo., USA), 68D (Nu-Check-Prep, Elysian, Minn., USA) and GLC-490 (Nu-Check-Prep, Elysian, Minn., USA) were used as external standards.

[8] = 2 g in breakfast, 10 subjects, 2 to 3 hours after breakfast

Structure (SMILES) | DHA (22:6n-3) in chylomicron TAGs, compared to olive oil breakfast ([1]; at 2 h and 3 h) | EPA (20:5n-3) proportion in chylomicron TAGs [1] | DPA (22:5n-3) content in chylomicron TAGs ([1]; vs olive oil meal 2-5 h (3 h p=0.06), vs EPA meal 3-5 h) | Difference between plasma TAG areas, compared to control meal ([2]; 2 g in breakfast, p=0.078) | Plasma TAG concentration at individual time points, compared to control meal ([2]; one and two hours, p=0.024 and p=0.014) | Plasma triglyceride level after consumption ([2]; postprandial) | Cases of diarrhea after the meal [3, 8] | Cases of upset stomach but no diarrhea after the meal [3, 8] | Subjects reporting diarrhea or upset stomach ([3]; in the three hours following the breakfast) | Incorporation of fatty acids in chylomicrons ([4]; 2 g added to 18 g olive oil, within five hours) | Chylomicron TAG level after the breakfast ([4]; 2 g free fatty acid in 18 g olive oil, up to 5 h postprandial, n=10) | Incremental area under the chylomicron TAG curve, compared to olive oil meal ([4]; 2 g in breakfast, p=0.021) | Incremental area under the chylomicron TAG curve, compared to EPA meal ([4]; 2 g in breakfast, p=0.034) | Chylomicron TAG concentration at individual time points, compared to control meal ([4]; one and two hours, p=0.017 and p=0.068) | Concentration of DHA in liver [5] | Concentration of EPA in the liver, heart and skeletal muscle [5] | TAG 58:9 in chylomicrons, compared to olive oil breakfast [6] | DHA (22:6n-3) in chylomicron TAGs, compared to olive oil breakfast ([1]; at 5 h) | Amount of DPA and DHA in chylomicron phospholipids, compared to olive oil breakfast [7] | Proportion of EPA in chylomicron phospholipids, compared to the two other breakfasts [7]
CCC=CCC=CCC=CCC=CCC=CCCCCCC(=O)O [DPA, 7, 10, 13, 16, 19 docosapentaenoic acid] | significantly increased | did not raise | significantly higher | tended to be significant | smaller | remained close to fasting levels | two | one | three out of the ten | almost completely eliminates | remained close to fasting levels; also recorded: remained at almost fasting level | significantly reduced | significantly reduced | smaller | significantly increased | significantly increased | significantly more |  |  | 
CC/C=C\C/C=C\C/C=C\C/C=C\C/C=C\CCCC(=O)O [EPA, eicosapentaenoic acid, reference compound] |  | significantly higher |  |  |  |  | One |  |  |  |  |  |  |  |  |  | significantly more | significantly increased | increased | increased
